Test results as given in US6737383B1, “Herbicidal oxadiazolidines” (priority 1999, dated 2004).

What was measured:
rape = assay: Test B pre/postemergence rape; format: in vivo, Brassica napus
Procedure, shortened: (§1)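 Herbicidal effect was estimated by eye on a ten-point control scale after plants spent twelve to sixteen days in a greenhouse following soil or foliar treatment. Foliar sprays targeted plants at one to four leaves; all doses were formulated in a non-phytotoxic solvent with surfactant.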

corn = assay: Test B pre/postemergence corn; format: in vivo, Zea mays
Procedure, shortened: as §1

duck salad = assay: Test B flood test duck salad; format: in vivo, Heteranthera limosa; settings: for Ducksalad plant response rating (0 to 10 scale, 0 is no effect, 10 is complete control): under heading Pre-emergence; for Ducksalad plant response rating (0 to 10 scale, 0 is no effect, 10 is complete control) / Plant response rating, Ducksalad (0 to 10 scale, 0 is no effect, 10 is complete control): visual evaluation after twelve to sixteen days
Procedure, shortened: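 Each value is a visual injury score relative to controls, with 10 meaning complete control and 0 no effect. Evaluation took place twelve to sixteen days after the 2-leaf-stage plants were treated and kept in the greenhouse.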

sugar beet = assay: Test B pre/postemergence sugar beet; format: in vivo, Beta vulgaris
Procedure, shortened: as §1

[1] = Postemergence, Rate 125 g/ha, scale of 0 to 10 where 0 is no effect and 10 is complete control
[2] = Postemergence, Rate 250 g/ha, scale of 0 to 10, 0 is no effect, 10 is complete control
[3] = Postemergence, Rate 500 g/ha, scale of 0 to 10 where 0 is no effect and 10 is complete control
[4] = Postemergence, Rate 1000 g/ha, scale 0 to 10 (0 no effect, 10 complete control)
[5] = Preemergence, Rate 125 g/ha, scale of 0 to 10 where 0 is no effect and 10 is complete control
[6] = Preemergence, Rate 500 g/ha, scale of 0 to 10 where 0 is no effect and 10 is complete control
[7] = Rate 1000 g/ha, Preemergence, scale 0 to 10 (0 no effect, 10 complete control)
[8] = Pre-emergence, Rate 1000 g/ha, scale 0 to 10 (0 no effect, 10 complete control)
[9] = Rate 125 g/ha, flood test species
[10] = Rate 250 g/ha, Pre-emergence (flood test species), scale 0 to 10, 0 is no effect, 10 is complete control
[11] = Rate 500 g/ha, Pre-emergence section of Table B, 0 to 10 scale (0 no effect, 10 complete control)
[12] = Postemergence, Rate 62 g/ha, scale 0 to 10, 0 is no effect, 10 is complete control
[13] = Preemergence, Rate 62 g/ha, scale of 0 to 10 where 0 is no effect and 10 is complete control
[14] = Preemergence, Rate 250 g/ha, scale 0 to 10 (0 no effect, 10 complete control)
[15] = Rate 62 g/ha, flood test species, Pre-emergence
[16] = Postemergence, Rate 125 g/ha, scale 0 to 10, 0 is no effect, 10 is complete control
[17] = Postemergence, Rate 500 g/ha, scale 0 to 10, 0 is no effect, 10 is complete control
[18] = Preemergence, Rate 125 g/ha, scale 0 to 10, 0 is no effect, 10 is complete control
[19] = Preemergence, Rate 250 g/ha, scale 0 to 10, 0 is no effect, 10 is complete control
[20] = Preemergence, Rate 500 g/ha, scale 0 to 10, 0 is no effect, 10 is complete control
[21] = Rate 62 g/ha, Postemergence, scale 0 to 10, 0 no effect, 10 complete control
[22] = Preemergence, Rate 250 g/ha, scale of 0 to 10 where 0 is no effect and 10 is complete control
[23] = Rate 125 g/ha, Postemergence, scale of 0 to 10 where 0 is no effect and 10 is complete control
[24] = Rate 250 g/ha, Postemergence, scale of 0 to 10 where 0 is no effect and 10 is complete control
[25] = Postemergence, Rate 250 g/ha, scale 0 to 10, 0 is no effect, 10 is complete control
[26] = Preemergence, Rate 62 g/ha, scale 0 to 10 (0 no effect, 10 complete control)
[27] = Rate 62 g/ha, Postemergence, scale of 0 to 10 where 0 is no effect and 10 is complete control

## C=CCn1c(=O)on(C(=O)N(c2c(C)cccc2C)C(C)COC)c1=O (centres unmarked) [Compound 600]
rape; [1]
  Plant response rating, Rape: 0
rape; [2]
  Rape plant response rating: 0
rape; [3]
  Plant response rating, Rape: 0
rape; [4]
  Rape plant response rating: 0
rape; [5]
  Rape plant response rating: 0
rape; [6]
  Plant response rating, Rape: 0
rape; [7]
  Plant response rating, Rape: 0
corn; [1]
  Plant response rating, Corn: 0
corn; [2]
  Corn plant response rating: 0
corn; [3]
  Plant response rating, Corn: 0
corn; [4]
  Corn plant response rating: 0
corn; [5]
  Corn plant response rating: 0
corn; Preemergence, Rate 250 g/ha
  Corn plant response rating (0 to 10 scale): 0
corn; [6]
  Plant response rating, Corn: 0
corn; [7]
  Plant response rating, Corn: 0
Duck salad; [8]
  Ducksalad plant response rating: 0
Duck salad; [9]
  Ducksalad plant response rating (0 to 10 scale, 0 is no effect, 10 is complete control): 0
Duck salad; [10]
  Ducksalad plant response rating: 0
Duck salad; [11]
  Ducksalad plant response rating: 0
Sugar beet; [1]
  Plant response rating, Sugarbeets: 0
Sugar beet; [2]
  Sugarbeets plant response rating: 0
Sugar beet; [3]
  Plant response rating, Sugarbeets: 0
Sugar beet; [4]
  Sugarbeets plant response rating: 0
Sugar beet; [5]
  Sugarbeets plant response rating: 0
Sugar beet; [6]
  Plant response rating, Sugarbeets: 0
Sugar beet; [7]
  Plant response rating, Sugarbeets: 0

## CC(C)N(C(=O)n1oc(=O)n(Cc2nnc(Cl)s2)c1=O)c1ccc(F)cc1F [Compound 645]
rape; [12]
  Plant response rating, Rape: 0
rape; [1]
  Rape plant response rating: 0
rape; [3]
  Plant response rating, Rape: 0
rape; [13]
  Rape plant response rating: 0
rape; [5]
  Rape plant response rating: 0
rape; [14]
  Plant response rating, Rape: 0
rape; [6]
  Plant response rating, Rape: 0
corn; [12]
  Plant response rating, Corn: 0
corn; [1]
  Corn plant response rating: 0
corn; [2]
  Corn plant response rating: 0
corn; [3]
  Plant response rating, Corn: 0
corn; [13]
  Corn plant response rating: 0
corn; [5]
  Corn plant response rating: 0
corn; [14]
  Plant response rating, Corn: 0
corn; [6]
  Plant response rating, Corn: 0
Duck salad; [15]
  Plant response rating, Ducksalad (0 to 10 scale, 0 is no effect, 10 is complete control): 0
Duck salad; [9]
  Ducksalad plant response rating (0 to 10 scale, 0 is no effect, 10 is complete control): 0
Duck salad; [10]
  Ducksalad plant response rating: 0
Duck salad; [11]
  Ducksalad plant response rating: 0
Sugar beet; [12]
  Plant response rating, Sugarbeets: 0
Sugar beet; [1]
  Sugarbeets plant response rating: 0
Sugar beet; [13]
  Sugarbeets plant response rating: 0
Sugar beet; [5]
  Sugarbeets plant response rating: 0
Sugar beet; [14]
  Plant response rating, Sugarbeets: 0
Sugar beet; [6]
  Plant response rating, Sugarbeets: 0

## CC(C)C(=O)Cn1c(=O)on(C(=O)N(c2ccc(F)cc2F)C(C)C)c1=O [Compound 486]
rape; [16]
  Rape plant response rating: 0
rape; [17]
  Plant response rating, Rape: 1
rape; [13]
  Plant response rating, Rape: 2
rape; [18]
  Rape plant response rating: 2
rape; [19]
  Rape plant response rating: 6
rape; [20]
  Rape plant response rating: 6
rape; [21]
  Rape plant response rating: 0
corn; [16]
  Corn plant response rating: 0
corn; Postemergence, Rate 250 g/ha, scale 0 to 10
  Corn plant response rating: 0
corn; [17]
  Plant response rating, Corn: 3
corn; [13]
  Plant response rating, Corn: 0
corn; [18]
  Corn plant response rating: 0
corn; [19]
  Corn plant response rating: 5
corn; [20]
  Corn plant response rating: 8
corn; [21]
  Corn plant response rating: 0
Duck salad; [15]
  Plant response rating, Ducksalad (0 to 10 scale, 0 is no effect, 10 is complete control): 0
Duck salad; [9]
  Ducksalad plant response rating (0 to 10 scale, 0 is no effect, 10 is complete control): 0
Duck salad; [10]
  Ducksalad plant response rating: 0
Duck salad; [11]
  Ducksalad plant response rating: 0
Sugar beet; [16]
  Sugarbeets plant response rating: 0
Sugar beet; [17]
  Plant response rating, Sugarbeets: 2
Sugar beet; [13]
  Plant response rating, Sugarbeets: 0
Sugar beet; [18]
  Sugarbeets plant response rating: 0
Sugar beet; [19]
  Sugarbeets plant response rating: 4
Sugar beet; [20]
  Sugarbeets plant response rating: 6
Sugar beet; [21]
  Sugarbeets plant response rating: 0

## CCOC(=O)C(C)N(C(=O)n1oc(=O)n(C(C)C)c1=O)c1ccc(F)cc1 (centres unmarked) [Compound 302]
rape; [4]
  Rape plant response rating: 0
rape; Preemergence, Rate 125 g/ha
  Rape plant response rating (0 to 10 scale): 0
rape; [22]
  Rape plant response rating: 0
rape; [23]
  Rape plant response rating: 0
rape; [24]
  Plant response rating, Rape: 0
rape; [7]
  Plant response rating, Rape: 8
corn; [4]
  Corn plant response rating: 0
corn; Preemergence, Rate 125 g/ha
  Corn plant response rating (0 to 10 scale): 0
corn; [22]
  Corn plant response rating: 0
corn; [6]
  Corn plant response rating: 0
corn; [23]
  Corn plant response rating: 0
corn; [24]
  Plant response rating, Corn: 0
corn; Rate 500 g/ha, Postemergence, scale 0 to 10, 0 no effect, 10 complete control
  Corn plant response rating: 0
corn; [7]
  Plant response rating, Corn: 0
Duck salad; [8]
  Ducksalad plant response rating: 0
Duck salad; Rate 125 g/ha, Pre-emergence, flood test species, scale 0 to 10 where 0 is no effect and 10 is complete control
  Ducksalad plant response rating: 0
Duck salad; Rate 250 g/ha, Pre-emergence, flood-test species, scale 0 to 10, 0 is no effect, 10 is complete control
  Ducksalad plant response rating: 0
Duck salad; Rate 500 g/ha, Pre-emergence, flood test species, scale 0 to 10 (0 no effect, 10 complete control)
  Ducksalad plant response rating: 0
Sugar beet; [4]
  Sugarbeets plant response rating: 2
Sugar beet; Preemergence, Rate 125 g/ha
  Sugarbeets plant response rating (0 to 10 scale): 0
Sugar beet; [22]
  Sugarbeets plant response rating: 2
Sugar beet; [6]
  Sugarbeets plant response rating: 2
Sugar beet; [23]
  Sugarbeets plant response rating: 0
Sugar beet; [24]
  Plant response rating, Sugarbeets: 1
Sugar beet; [7]
  Plant response rating, Sugarbeets: 4

## CC(C)N(C(=O)n1oc(=O)n(CCC(F)(F)F)c1=O)c1ccc(F)cc1 [Compound 397]
rape; [25]
  Plant response rating, Rape: 0
rape; [3]
  Rape plant response rating: 2
rape; [26]
  Plant response rating, Rape: 3
rape; [5]
  Plant response rating, Rape: 9
rape; [19]
  Rape plant response rating: 10
rape; [20]
  Rape plant response rating: 10
rape; [27]
  Rape plant response rating: 0
corn; [16]
  Plant response rating, Corn: 0
corn; [25]
  Plant response rating, Corn: 0
corn; [3]
  Corn plant response rating: 0
corn; [26]
  Plant response rating, Corn: 0
corn; [5]
  Plant response rating, Corn: 0
corn; [19]
  Corn plant response rating: 3
corn; [20]
  Corn plant response rating: 8
corn; [27]
  Corn plant response rating: 0
Duck salad; Postemergence (flood test), Rate 125 g/ha, scale 0 to 10, 0 is no effect, 10 is complete control
  Plant response rating, Ducksalad: 0
Duck salad; Postemergence section (flood test species), Rate 500 g/ha, scale of 0 to 10 where 0 is no effect and 10 is complete control
  Ducksalad plant response rating: 0
Duck salad; Rate 62 g/ha, Postemergence (flood test species), scale of 0 to 10 where 0 is no effect and 10 is complete control
  Ducksalad plant response rating: 0
Duck salad; flood test species, listed under Postemergence, Rate 250 g/ha, scale 0 to 10, 0 is no effect, 10 is complete control
  Plant response rating, Ducksalad: 0
Sugar beet; [25]
  Plant response rating, Sugarbeets: 0
Sugar beet; [3]
  Sugarbeets plant response rating: 0
Sugar beet; [26]
  Plant response rating, Sugarbeets: 0
Sugar beet; [5]
  Plant response rating, Sugarbeets: 4
Sugar beet; [19]
  Sugarbeets plant response rating: 7
Sugar beet; [20]
  Sugarbeets plant response rating: 9
Sugar beet; [27]
  Sugarbeets plant response rating: 0
